The text below walks through data of patent EP0041488A1, “Therapeutically useful tetralin derivatives” (Arvidsson, Folke Lars-Erik, priority 1980, dated 1981).

In one test the test system is central 5-HT receptors. The test can be described thus: In-vivo determination of rat brain tryptophan hydroxylation (5-HTP formation) after reserpine pretreatment. The following applies: reserpine-pretreated rats; for "ED70%" for 5-HTP reduction: s.c., dose giving 70 % of the control 5-HTP level, similar values for limbic forebrain, striatum and hemispheral portions. Here is the method: b. In-vivo determination of rat brain tyrosine and tryptophan hydroxylation after reserpine pretreatment (biochemical DA- and 5-HT receptor activity).
The compounds under evaluation were tested biochemically for central DA- and 5-HT-receptor (pre- and/or postsynaptic) stimulating activity. The concept of this biochemical screening method is that a DA- or 5-HT-receptor agonist will stimulate the receptor and through regulatory feedback systems effect a decline-in tyrosine or tryptophan hydroxylating activity, respectively, and a subsequent reduction in the synthesis rate for DA and 5-HT in the presynaptic neuron. Dopa and 5-HTP formation. as determined after in-vivo inhibition of the aromatic L-amino acid decarboxylase with NSO 1015 (3-hydroxybenzylhydrazine hydrochloride) are taken as indirect measures of DA- and 5-HT-synthesis rates, respectively.
Rats (150-300 g) pretreated with reserpine (5 mg/kg, 18 h before) were given the compounds under evaluation. Gross behavioural observations (changes in motility, hindleg abduction etc; c.f. above) were made. Subsequent administration of NSD 1015, decapitation, brain dissection [cerpera striate, the limbic ferebrain and the remaining hemispheral portions (mainly cortex) of rat brain], homogenization, centrifugation, ion-exchange chromatography and spectro- fluorimetric measurements (all as described in detail by Wikström et al., J. Med. Chem., 21, 864-867, 1978 and references cited therein) gave the actual dopa and 5-HTP levels. Several doses (n=4-6) were tested for each compound and brain area. The dose of a compound giving 70 % of the control 5-HTP.level in the rat brain part was then estimated.

The next test relates to Male Wistar rats. The test can be described thus: Hetero-sexual (masculine copulatory) behaviour in normal male rats. The following applies: median. Type of test: in vivo, rat. Here is the method: (§1) Male Wistar rats (12 months old; sexually experienced) were injected i.p. every second day in a balanced order with different doses of the compounds dissolved in physiological saline and injected in a volume of 2 ml/kg. Testing was begun 15 min after the drug treatment.
(§2) Mating arenas were 50' cm diameter acrylic glass cages with wood shavings on the floor. The stimulus females were of Wistar strain, primed with estradiol benzoate . (20 µg/animal) 48 h prior to testing and progesterone ([…]/animal) 4-6 h before testing.
(§3) The occurrence of mounts, intromissions and ejaculations were scored by an experienced observer. The measures of masculine copulatory behavior further included mount latency and intromission latency which are time from introduction of the stimulus female to the first mount and first intromission respectively. A copulatory series includes the mounts and intromissions preceding an ejaculation. Ejaculatory latency is the time from the first .intromission in a copulatory series to the ejaculation terminating that series. The postejaculatory interval is the time from an ejaculation to the next intromission. Tests were terminated when the rat had achieved one ejaculation and started the second series of copulations, or, if the intromission latency was >15 min, the ejaculation latency was >30 min, or the postejaculatory interval was >15 min.

The test system of the next test is castrated male rats. The test can be described thus: Sexual behaviour in castrated male rats (preliminary). Type of test: in vivo, rat. Here is the method:
as §1, §2, §3

The mark [1] stands for this setting: subgroup 1 of biochemical potency.
Where [2] appears, read: subgroup 3 of biochemical potency.

The structures appear in SMILES notation. Marks after values point to notes of the source that are not given here. A value given as a limit tells only on which side of the number the result lay.

In the case of `CCCN(CC)C1CCc2cccc(O)c2C1` (stereo not shown) [Compound 19], in the test on central 5-HT receptors, the “"ED70%" for 5-HTP reduction” value is 0.09 µmol/kg.
Still for that read-out and setting: under `CCCN(Cc1ccccc1)C1CCc2cccc(O)c2C1` (stereo not shown) [Compound 23] stands 3 µmol/kg.
As for `Br.CCCN(CCC)C1CCc2cccc(O)c2C1` (stereo not shown) [Compound 20, 2-(di-n-propylamino)-8-hydroxytetralin hydrobromide], in the test on Male Wistar rats (4 mg/kg i.p., second experiment (N 9), control 1), the “Mounts (number)” value turned out to be 0. The molecule further registered an Ejaculatory latency in the test with Male Wistar rats (4 mg/kg i.p., second experiment (N 9), control 1.80) of 0.25 min. The same molecule yielded a Postejaculatory interval with Male Wistar rats (4 mg/kg i.p., second experiment (N 9), control 4.45) of 4.75 min. Further, the “Intromissions (number)” value in the test on Male Wistar rats (4 mg/kg i.p., second experiment (N 9), control 5) is reported as 1^***. The “"ED70%" for 5-HTP reduction” value with central 5-HT receptors amounted to 0.06 µmol/kg. In addition, the “"ED70%"” value with central 5-HT receptors (setting [1]) was 0.01 to 1.0 µmol/kg.
Regarding `CCCN(CCC)C1CCc2cccc(OC)c2C1` (single isomer, unassigned; (-)) [(-)-8], the “Mounts (number)” value in the test on Male Wistar rats (4 mg/kg i.p., 15 min after treatment, control 2, listed as (-)-8 · HCl) was 0.5^*. Also, the Ejaculatory latency in the test on Male Wistar rats (4 mg/kg i.p., 15 min after treatment, control 4.75, listed as (-)-8 · HCl) was 1.30^*** min. Moreover, the Postejaculatory interval in the test with Male Wistar rats (4 mg/kg i.p., 15 min after treatment, control 5.50, listed as (-)-8 · HCl) came to 5.65 min. In addition, the “Intromissions (number)” value with Male Wistar rats (4 mg/kg i.p., 15 min after treatment, control 9, listed as (-)-8 · HCl) is on record as 4.5^**. Further, in the test with central 5-HT receptors, the “"ED70%" for 5-HTP reduction” value is 0.3 to 0.4 µmol/kg.
Regarding `CCCCN(CCCC)C1CCc2cccc(O)c2C1` (stereo not shown) [Compound 22], the “"ED70%" for 5-HTP reduction” value with central 5-HT receptors is on record as 8 µmol/kg.
For `CCCCCCCCNC1CCc2cccc(O)c2C1` (stereo not shown) [Compound 18], the “"ED70%" for 5-HTP reduction” value in the test on central 5-HT receptors was determined as 50 µmol/kg. For the same molecule, the “"ED70%"” value in the test with central 5-HT receptors (setting [2]) was “above 10 umol/kg”.
In the same order, the values of `CCCCN(CCCC)C1CCc2cccc(OC)c2C1` (stereo not shown) [Compound 10] are 25 µmol/kg and “above 10 umol/kg”.
Take `CC(C)NC1CCc2cccc(O)c2C1` (stereo not shown) [Compound 17]: the “"ED70%" for 5-HTP reduction” value in the test on central 5-HT receptors is 8 µmol/kg.
The same measure, in the same setting: the value for `CCCCNC1CCc2cccc(O)c2C1` (stereo not shown) [Compound 16] was 6 µmol/kg.
On to `CCCN(CCC)C1CCc2cccc(OC)c2C1` (single isomer, unassigned; (+)) [(+)-8], for which the “Mounts (number)” value with Male Wistar rats (4 mg/kg i.p., 15 min after treatment, control 2, listed as (+)-8 · HCl) is on record as 1^*. For the same molecule, the Ejaculatory latency in the test on Male Wistar rats (4 mg/kg i.p., 15 min after treatment, control 4.75, listed as (+)-8 · HCl) is listed as 1.05^*** min. In the test with Male Wistar rats (4 mg/kg i.p., 15 min after treatment, control 5.50, listed as (+)-8 · HCl), this molecule gave a Postejaculatory interval of 6.15 min. Besides, in the test with Male Wistar rats (4 mg/kg i.p., 15 min after treatment, control 9, listed as (+)-8 · HCl), the “Intromissions (number)” value is recorded as 2^***. Moreover, the “"ED70%" for 5-HTP reduction” value in the test with central 5-HT receptors was 0.2 to 0.4 µmol/kg.
`CCCCN(CCC)C1CCc2cccc(O)c2C1` (stereo not shown) [Compound 21]: the “"ED70%" for 5-HTP reduction” value with central 5-HT receptors is reported as 0.5 µmol/kg. In the test on central 5-HT receptors (setting [1]), the “"ED70%"” value was 0.01 to 1.0 µmol/kg.
Regarding `CCCN(CCC)C1CCc2cccc(OC)c2C1` (racemic) [Compound 8, 2-(di-n-propylamino)-8-methoxytetralin], the “Mounts (number)” value with Male Wistar rats (1 mg/kg i.p., 15 min after treatment, control 2) is 0^* b); in the test on Male Wistar rats (2 mg/kg i.p., 15 min after treatment, control 2), 1; in the test on Male Wistar rats (4 mg/kg i.p., 15 min after treatment, control 2), 1^***; in the test on Male Wistar rats (8 mg/kg i.p., 15 min after treatment, control 2), 0^**; in the test on Male Wistar rats (16 mg/kg i.p., 15 min after treatment, control 2) it was 0^***. Also, the Ejaculatory latency in the test with Male Wistar rats (1 mg/kg i.p., 15 min after treatment, control 4.75) is reported as 3.20 min; with Male Wistar rats (2 mg/kg i.p., 15 min after treatment, control 4.75) it was 2.65 min; with Male Wistar rats (4 mg/kg i.p., 15 min after treatment, control 4.75) it was 1.55^*** min; in the test on Male Wistar rats (8 mg/kg i.p., 15 min after treatment, control 4.75) it was 0.45^*** min; with Male Wistar rats (16 mg/kg i.p., 15 min after treatment, control 4.75) it was 0.55^*** min. The Postejaculatory interval with Male Wistar rats (1 mg/kg i.p., 15 min after treatment, control 5.50) stood at 6.40 min; in the test with Male Wistar rats (2 mg/kg i.p., 15 min after treatment, control 5.50), 5.05 min; in the test on Male Wistar rats (4 mg/kg i.p., 15 min after treatment, control 5.50), 4.55 min; in the test on Male Wistar rats (8 mg/kg i.p., 15 min after treatment, control 5.50), 5.05 min; in the test on Male Wistar rats (16 mg/kg i.p., 15 min after treatment, control 5.50), 4.55 min. Further, the “Intromissions (number)” value in the test with Male Wistar rats (1 mg/kg i.p., 15 min after treatment, control 9) is 8; with Male Wistar rats (2 mg/kg i.p., 15 min after treatment, control 9), 7^***; with Male Wistar rats (4 mg/kg i.p., 15 min after treatment, control 9), 3.5^***; in the test on Male Wistar rats (8 mg/kg i.p., 15 min after treatment, control 9) it was 1.5^***; in the test with Male Wistar rats (16 mg/kg i.p., 15 min after treatment, control 9), 1^***. In the test with castrated male rats (8 mg/kg, out of 9 rats (of the 2 with intromissions), preliminary), the “castrated male rats that ejaculated” value is 1. Also, the “castrated male rats that made intromissions” value in the test with castrated male rats (8 mg/kg, out of 9 rats (of the 5 that mounted), preliminary) came out at 2. Also, the “castrated male rats that mounted the female” value in the test with castrated male rats (8 mg/kg, out of 9 rats, none of 9 saline-treated showed any sexual activity, preliminary) was 5. Also, the “sexual activity of male rats rendered sexual inactive by castration” value in the test with castrated male rats (preliminary experiments) is “became sexual active”. Also, the “"ED70%" for 5-HTP reduction” value in the test on central 5-HT receptors was 0.4 µmol/kg.
Consider `CCCNC1CCc2cccc(O)c2C1` (stereo not shown) [Compound 15], for which the “"ED70%" for 5-HTP reduction” value in the test on central 5-HT receptors stood at 0.4 µmol/kg.
As to `Oc1cccc2c1CC(N1CCCCC1)CC2` (stereo not shown) [Compound 24], the “"ED70%" for 5-HTP reduction” value in the test on central 5-HT receptors is given as below 20 µmol/kg.
Regarding `CNC1CCc2cccc(O)c2C1` (stereo not shown) [Compound 14], in the test on central 5-HT receptors, the “"ED70%" for 5-HTP reduction” value is 1.5 to 10 µmol/kg.
